Entries after “also recorded” stand apart in the source; their conditions may differ. Like-named read-outs stand apart in the source and are kept apart here. Marks after values point to notes of the source that are not given here.
Tests used:
male Hessian flies [1] = assay: Y-tube olfactometer two-choice bioassays; type: in vivo, Mayetiola destructor
Source text: The attractiveness of different synthetic pheromone blends and female gland extracts were studied in a mobile glass Y-tube olfactometer, (FIG. 5a). The arms of the Y-tube were 14 cm long, the stem 12.5 cm and the inner diameter was 2.2 cm. Charcoal-filtered and humidified air was pumped (Micro pump NMP 30 KNDC, 12 V, KNF Neuberger, Germany) through Teflon tubes and entered each arm via a custom made 9.5 cm long glass tube, (Humi Glas, Södra Sandby, Sweden) (FIG. 5b). […] In the centre of the glass tube was a glass rod (ca 1 cm long; 0.5 cm diameter) containing a centred small hole. During experiments, the stimulus was applied on a small piece of filter paper (1.5×0.5 cm) attached to a ca 1.5 cm long steel wire. The steel wire was placed in the hole of the glass rod to position the stimulus in the centre of the tube. […]
Six different two-choice bioassays were performed to evaluate differences in attractiveness of the main pheromone component (abbreviated: 1), 2S-E10-13:OAc, a three-component blend (abbreviated: 3) consisting of 2S-E10-13:OAc, 2S-E10-13:OH and 2S-13:OAc, and two different four-component blends, both consisting of the compounds included in the three-component blend but with either 2S-E8-E10-13:OAc (abbreviated: 4E) or 2S-Z8-E10-13:OAc (abbreviated: 4Z) added. […] Data from the […] bioassays were analysed by chi-square tests.

male Hessian flies [2] = details: wind tunnel, Harris and Foster (1991); cited from earlier work
[3] = tested on: male Hessian flies (antennal responses); details: Hillbur et al unpublished, cited from earlier work; for elicit antennal responses in male Hessian flies: GC-EAD; for known to elicit antennal responses (mark in Table 2): earlier GC-EAD
[4] = tested on: male Hessian fly antennae; assay: GC-EAD recordings of male antennal responses; design: species or system Mayetiola destructor; details: for antennal responses to compounds in female gland extract: GC-EAD of female Hessian fly extract (20 female equivalents); for antennal responses in males to synthetic compounds: GC-EAD, whole males mounted
Source text: Coupled gas chromatographic-electroantennographic detection (GC-EAD, Arn et al 1975) was used to analyse female gland extracts. GC-EAD is an efficient tool to determine which compounds in an extract that the male antennae can perceive, by use of the highly specific olfactory receptor neurons. In a CC-EAD set-up (FIG. 3), the effluent of the GC column is split between the flame ionisation detector (FID) of the CC and the antennal detector (EAD). The GC separates the compounds in the extract over time and the compounds are detected by the FID. Simultaneously, the eluting compounds also pass the male antennae via a constant charcoal-filtered and humidified air stream. The male antennae are connected to two electrodes and, if the antennae perceive a compound, neural signals are generated and these signals are recorded as an electroantennogram (EAG). Since the olfactory receptors on the antennae are highly specific, they will more or less exclusively respond to the pheromone compounds in the extract. In addition to pheromone extracts, GC-EAD can be used to analyse all sorts of compound blends, e.g. host volatile collections and synthetic pheromone compounds. Irrespective of what kind of substances that are analysed, simultaneous recordings from the FID and the EAD give information on which compounds in the blend that are interesting for chemical identification and/or behavioural testing.
In addition to gland extracts, GC-EAD was used to analyse seven synthetic compounds (Table 2).
A Hewlett-Packard 6890 GC (Palo Alto, Calif., USA) with flame ionization detection and an Innowax column (30 m×0.25 mm ID, H-P) was used for the GC-EAD recordings. The column was programmed from 80° C./2 min to 220° C. at 10° C./min. Since male Hessian fly antennae are very sensitive to desiccation whole male bodies instead of excised antennae were mounted in an antenna holder (JoAC, Lund, Sweden) (FIG. 4). The antennal holder is made of Plexiglas with two wells connected to an amplifier by gold wire electrodes and males were mounted in the antennal holder as described by Hillbur et al (2001). The antennae were exposed to a charcoal-filtered and humidified air stream at a rate of ca 0.3 m/s through a glass tube (8 mm diameter). The signals from the antennae were amplified (JoAC) before they were recorded and analysed with ElectroAntennoGraphy software (Syntech, Hilversum, The Netherlands).

male Hessian flies [5] = details: field study, main compound alone, cited from earlier work

Row | Compound | elicit antennal responses in male Hessian flies [3] | known to elicit antennal responses (mark in Table 2) [3] | antennal responses to compounds in female gland extract [4] | antennal responses in males to synthetic compounds [4] | other results
1 | CC/C=C/CCCCCCC[C@H](C)OC(C)=O [2S-E10-13:OAc, (2S,10E)-10-tridecen-2-yl acetate] | elicit antennal responses | (2S-E10-13:OAc) * | antennal responses | elicited antennal responses; also recorded: responded | responding males attracted when compared to blank (male Hessian flies [1]; Y-tube, main component alone versus blank): over 90%; attractiveness to males versus blank (male Hessian flies [1]; blank-1 bioassay, 10 ng, p<0.001): significantly more attracted; males that contacted the odour source (male Hessian flies [2]): 56%; catch of male Hessian flies in the field (male Hessian flies [5]): did not catch any male Hessian flies; catch of male Hessian flies in the field (male Hessian flies [5]; listed as main component): did not catch any males
2 | CC/C=C/CCCCCCC[C@H](C)O [2S-E10-13:OH, (2S,10E)-10-tridecen-2-ol] | elicit antennal responses | (2S-E10-13:OH) * | antennal responses | responded | antennal responses in males to synthetic compounds ([4]; listed as 2S-E0-13:OH): elicited antennal responses
3 | CC/C=C\CCCCCCC[C@H](C)OC(C)=O [2S-Z10-13:OAc] |  |  | antennal responses | a response was recorded | antennal responses to compounds in female gland extract ([4]; listed as 23-Z10-13:OAc): respond
4 | CCCC/C=C/CCCCCCC[C@H](C)OC(C)=O [2S-E10-15:OAc, (2S,10E)-10-pentadecen-2-yl acetate] |  |  |  | did not elicit antennal responses; also recorded: No responses were recorded | 
5 | CC/C=C/C=C\CCCCC[C@H](C)OC(C)=O [2S-Z8-E10-13:OAc, (2S,8Z,10E)-8,10-tridecadien-2-yl acetate] |  |  |  | elicited antennal responses; also recorded: males respond; also recorded: responded | 
6 | CCCCCCCCCCC[C@H](C)OC(C)=O [2S-13:OAc, (2S)-tridecan-2-yl acetate] | elicit antennal responses | (2S-13:OAc) * | antennal responses | elicited antennal responses; also recorded: responded | 
7 | CC/C=C/C=C/CCCCC[C@H](C)OC(C)=O [2S-E8-E10-13:OAc, (2S,8E,10E)-8,10-tridecadien-2-yl acetate] |  |  |  | elicited antennal responses; also recorded: males respond; also recorded: responded | 
8 | CC/C=C/CCCCCCCCC[C@H](C)OC(C)=O [2S-E12-15:OAc, (2S,12E)-12-pentadecen-2-yl acetate] |  |  |  | did not elicit antennal responses; also recorded: No responses were recorded | 

— patent publication US20090274645A1, “GALL MIDGE PHEROMONE MIXTURE” (priority 2006, published 2009)
